From ChEMBL document CHEMBL4007392, “Modulating Mineralocorticoid Receptor with Non-steroidal Antagonists. New Opportunities for the Development of Potent and Selective Ligands without Off-Target Side Effects” (J Med Chem, 2017) come the findings set out here.

Data set [1] has as its target T1, Mineralocorticoid receptor (Homo sapiens, UniProt P08235).
T1 sequence (P08235 whole entry): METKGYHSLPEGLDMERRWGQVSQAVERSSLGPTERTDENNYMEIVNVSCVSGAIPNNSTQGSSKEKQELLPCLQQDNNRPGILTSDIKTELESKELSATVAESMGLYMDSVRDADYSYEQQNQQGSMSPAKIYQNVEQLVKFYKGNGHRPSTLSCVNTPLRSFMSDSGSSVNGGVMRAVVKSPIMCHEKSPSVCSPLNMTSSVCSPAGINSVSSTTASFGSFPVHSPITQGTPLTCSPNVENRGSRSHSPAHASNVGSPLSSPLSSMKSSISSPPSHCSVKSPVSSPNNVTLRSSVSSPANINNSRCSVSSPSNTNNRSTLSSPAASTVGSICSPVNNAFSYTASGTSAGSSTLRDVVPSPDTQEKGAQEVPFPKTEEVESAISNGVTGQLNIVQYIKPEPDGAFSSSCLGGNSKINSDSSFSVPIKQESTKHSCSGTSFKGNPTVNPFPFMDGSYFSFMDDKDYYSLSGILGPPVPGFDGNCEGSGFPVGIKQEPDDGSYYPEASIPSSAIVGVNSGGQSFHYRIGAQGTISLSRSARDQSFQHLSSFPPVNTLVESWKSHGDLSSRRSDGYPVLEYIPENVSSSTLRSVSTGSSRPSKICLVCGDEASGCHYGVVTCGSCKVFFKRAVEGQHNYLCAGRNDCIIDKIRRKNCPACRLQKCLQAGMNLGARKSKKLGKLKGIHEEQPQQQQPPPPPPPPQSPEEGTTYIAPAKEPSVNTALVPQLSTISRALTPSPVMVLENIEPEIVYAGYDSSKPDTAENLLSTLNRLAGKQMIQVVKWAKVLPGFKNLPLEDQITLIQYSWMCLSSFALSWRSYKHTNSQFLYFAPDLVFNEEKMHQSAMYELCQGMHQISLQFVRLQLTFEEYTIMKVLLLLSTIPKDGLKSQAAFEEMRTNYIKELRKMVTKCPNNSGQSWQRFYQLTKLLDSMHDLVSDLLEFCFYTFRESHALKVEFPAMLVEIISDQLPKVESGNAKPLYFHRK
Put plainly: Displacement of [3H]-Aldosterone from MR overexpressed in human 293 cells measured after 2 hrs by Microbeta scintillation counting method. Format: cell-based. A general note: In a radioligand displacement assay an active substance lowers the binding of a labelled ligand.

Data set [2] concerns the target T1, Mineralocorticoid receptor. Put plainly: Antagonist activity at human MR overexpressed in HEK293 cells assessed as inhibition of aldosterone-induced response measured after overnight incubation by luciferase reporter gene assay. Format: cell-based. A general note: Reporter assays use an easily measured gene product as a stand-in for the process of interest.
Data set [3] in a line: Clearance in rat. Format: ADME. The note with it: in vivo.
Data set [4] is described as follows: Half life in human hepatocytes. Format: ADME, cell-based, Hepatocyte.
A short description of data set [5]: Half life in human liver microsomes. Format: ADME, microsome.
Data set [6] concerns the target T2, Mineralocorticoid receptor (Homo sapiens) (UniProt P08235).
T2 sequence (whole entry): T1 sequence (P08235 whole entry)
Put plainly: Antagonist activity at full-length human MR expressed in CHO-K1 cells assessed as inhibition of aldosterone-induced response measured after overnight incubation by luminesence analysis. Format: cell-based.

Data set [7] can be described thus: Half life in rat. Format: ADME. Particulars: in vivo.
The subject of data set [8] is Rattus norvegicus. Put plainly: In vivo antagonist activity at MR in rat assessed as inhibition aldosterone-induced decrease in urinary sodium/potassium ratio at 3 mg/kg, po after 20 hrs. Format: functional.
Data set [9] has as its target T1, Mineralocorticoid receptor. Description: Antagonist activity at Gal4-fused MR LBD (unknown origin) expressed in human Huh7 cells assessed as inhibition of aldosterone-induced transcriptional activity after 3 hrs by luciferase reporter gene assay. Format: cell-based.
The test system of data set [10] is Rattus norvegicus. Description: In vivo antagonist activity at MR in rat assessed as inhibition aldosterone-induced decrease in urinary sodium/potassium ratio at 30 mg/kg, po after 20 hrs. Format: functional.
Another data set is filed under the species Homo sapiens. Description: Ratio of IC50 for Gal4-fused human AR expressed in CHO-K1 cells to IC50 for Gal4-fused human MR expressed in CHO-K1 cells. Format: cell-based.
Data set [11] deals with T1, Mineralocorticoid receptor. Put plainly: Antagonist activity at Gal4-fused human MR LBD (734 to 985 residues) expressed in CHO-K1 cells after 5 to 6 hrs by luciferase reporter gene assay. Format: cell-based.
Data set [12] has as its target T1, Mineralocorticoid receptor. Put plainly: Displacement of [3H]-cortisol from MR overexpressed in human 293 cells measured after 2 hrs by Microbeta scintillation counting method. Format: cell-based.
For data set [13], the target named is T1, Mineralocorticoid receptor. Description: Antagonist activity at Gal4-fused human MR LBD (672 to 984 residues) expressed in HEK293T cells assessed as inhibition of aldosterone-induced transactivation activity after 24 hrs by luciferase reporter gene assay. Format: cell-based, HEK-293T.
The subject of data set [14] is Rattus norvegicus. Put plainly: In vivo antagonist activity at MR in rat assessed as inhibition aldosterone-induced decrease in urinary sodium/potassium ratio at 30 mg/kg, po after 8 hrs. Format: functional.

The structures appear in SMILES notation.

What is called Ki is the dissociation constant of the complex between target and ligand, obtained from inhibition or displacement. The low end stands for tighter binding, the high end for weaker binding. Usually IC50 stands for the concentration that inhibits the measured activity by half. Consider `C[C@H](CN1CCOCC1)n1/c(=N\C#N)[nH]c2cc(/C=C3\c4ccccc4COc4cc(F)ccc43)ccc21`, for which the Ki in data set [1] came to 0.4 nM. The IC50 in [2] is 21 nM. Broadly, the clearance is the volume of plasma or blood freed of the substance per unit of time. The low end stands for a low capacity for elimination, the high end for a high capacity for elimination. Usually half-life stands for the time in which the quantity being followed falls by half. Low readings indicate fast loss, high ones slow loss. As for `CCC(O)C(CC)(c1ccc(C(F)(F)F)cc1)n1ncc2c(NS(C)(=O)=O)cccc21` (stereo unspecified), the clearance in data set [3] turned out to be 24 mL/min/kg. Moreover, the half-life in data set [4] was > 1.5 h; in [5], 1.2 h; in data set [7], 5.3 h. Moreover, in data set [6], the Inhibitory potency was 4 nM.

One may read the inhibition in vivo as the relative decrease from the control value, in per cent. Consider `Cc1c(C(=O)Nc2ccc(S(C)(=O)=O)cc2)cn(CCO)c1-c1ccccc1C(F)(F)F` (single isomer, unassigned; atropisomer 2), for which the inhibition in vivo at 3 mg/kg in the data set with Rattus norvegicus [8] amounted to 56%. Turning to `C[C@@H]1CN(c2ccc3c(n2)NC(=O)CO3)CCO1`, in data set [9], the IC50 amounted to 3050 nM. In the case of `CC(=O)S[C@@H]1CC2=CC(=O)CC[C@]2(C)[C@H]2CC[C@@]3(C)[C@@H](CC[C@@]34CCC(=O)O4)[C@H]12` [SPIRONOLACTONE], in the data set with Rattus norvegicus [10], the inhibition in vivo at 30 mg/kg is < 20%. As for `CCOC(=O)C1=C(C)NC(C)=C(C(C)=O)[C@H]1c1cccc2c(=O)cc(C)oc12`, in the data set listed under Homo sapiens, the Ratio IC50 came to 160. For the same molecule, the IC50 in data set [11] was in the range of 28 to 43 nM. In the case of `O=c1[nH]c2cc(/C=C3\c4ccccc4COc4cc(F)ccc43)ccc2n1[C@@H]1C[C@@H]2COCCN2C1`, the affinity in [12], expressed as Ki, was 9 nM. Turning to `CC(=O)Oc1ccc(CCc2ccc3c(c2)NC(=O)CO3)c(C)c1`, the IC50 in data set [13] was < 2 nM. As to `COC(=O)[C@@H]1CC2=CC(=O)CC[C@]2(C)[C@@]23O[C@@H]2C[C@@]2(C)[C@@H](CC[C@@]24CCC(=O)O4)[C@H]13` [EPLERENONE], the inhibition in vivo at 30 mg/kg in the data set with Rattus norvegicus [14] came to 8%. `C[C@@H]1CN(c2ccc3c(c2)NC(=O)CO3)[C@H](c2ccccc2F)CO1`: in data set [9], the half-inhibitory concentration (IC50) was found to be 33.4 nM.
